Assays:
Assay in all cases: relative viability (nuclei count vs DMSO), 5 days (fraction); higher = more cells survive
NCI-H3122 = system: NCI-H3122
In short: (§1)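 Lung cancer cell lines were pin-tool dosed in 1536-well plates on the day after seeding, with either a lone drug or a fixed anchor-drug dose plus five library-drug doses (not always all listed) in √10 steps. Nuclei were counted on 4× images after 5 days. Relative viability is the ratio of treated-well to vehicle-well nuclei counts, with each value a median of duplicate plates.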

COR-L 105 = system: COR-L 105
In short: as §1

ABC-1 = system: ABC-1
In short: as §1

NCI-H2126 = system: NCI-H2126
In short: as §1

NCI-H2085 = system: NCI-H2085
In short: as §1

HOP-62 = system: HOP-62
In short: as §1

EMC-BAC-2 = system: EMC-BAC-2
In short: as §1

NCI-H358 = system: NCI-H358
In short: as §1

EPLC-272H = system: EPLC-272H
In short: as §1

NCI-H1915 = system: NCI-H1915
In short: as §1

NCI-H1755 = system: NCI-H1755
In short: as §1

NCI-H322M = system: NCI-H322M
In short: as §1

HCC-15 = system: HCC-15
In short: as §1

ChaGo-K-1 = system: ChaGo-K-1
In short: as §1

NCI-H1666 = system: NCI-H1666
In short: as §1

NCI-H1975 = system: NCI-H1975
In short: as §1

NCI-H2023 = system: NCI-H2023
In short: as §1

NCI-H441 = system: NCI-H441
In short: as §1

CAL-12T = system: CAL-12T
In short: as §1

LXF-289 = system: LXF-289
In short: as §1

UMC-11 = system: UMC-11
In short: as §1

HCC-78 = system: HCC-78
In short: as §1

Cc1sc2c(c1C)C(c1ccc(Cl)cc1)=N[C@@H](CC(=O)OC(C)(C)C)c1nnc(C)n1-2 [JQ1] + CC(=O)c1c(C)c2cnc(Nc3ccc(N4CCNCC4)cn3)nc2n(C2CCCC2)c1=O [Palbociclib] (partner 0.5 µM)
relative viability (NCI-H3122; first compound 0.04 µM): 0.22
relative viability (NCI-H3122; first compound 0.1265 µM): 0.203
relative viability (NCI-H3122; first compound 0.4 µM): 0.191
relative viability (NCI-H3122; first compound 1.265 µM): 0.185
relative viability (NCI-H3122; first compound 4 µM): 0.139
relative viability (COR-L 105; first compound 0.04 µM): 0.384
relative viability (COR-L 105; first compound 0.1265 µM): 0.429
relative viability (COR-L 105; first compound 0.4 µM): 0.358
relative viability (COR-L 105; first compound 1.265 µM): 0.311
relative viability (COR-L 105; first compound 4 µM): 0.34
relative viability (ABC-1; first compound 0.04 µM): 0.701
relative viability (ABC-1; first compound 0.1265 µM): 0.479
relative viability (ABC-1; first compound 0.4 µM): 0.44
relative viability (ABC-1; first compound 1.265 µM): 0.451
relative viability (ABC-1; first compound 4 µM): 0.334
relative viability (NCI-H2126; first compound 0.04 µM): 0.345
relative viability (NCI-H2126; first compound 0.1265 µM): 0.401
relative viability (NCI-H2126; first compound 0.4 µM): 0.368
relative viability (NCI-H2126; first compound 1.265 µM): 0.348
relative viability (NCI-H2126; first compound 4 µM): 0.37
relative viability (NCI-H2085; first compound 0.04 µM): 0.458
relative viability (NCI-H2085; first compound 0.1265 µM): 0.427
relative viability (NCI-H2085; first compound 0.4 µM): 0.508
relative viability (NCI-H2085; first compound 1.265 µM): 0.418
relative viability (NCI-H2085; first compound 4 µM): 0.462
relative viability (HOP-62; first compound 0.04 µM): 0.424
relative viability (HOP-62; first compound 0.1265 µM): 0.323
relative viability (HOP-62; first compound 0.4 µM): 0.152
relative viability (HOP-62; first compound 1.265 µM): 0.106
relative viability (HOP-62; first compound 4 µM): 0.0968
relative viability (EMC-BAC-2; first compound 0.04 µM): 0.496
relative viability (EMC-BAC-2; first compound 0.1265 µM): 0.441
relative viability (EMC-BAC-2; first compound 0.4 µM): 0.421
relative viability (EMC-BAC-2; first compound 1.265 µM): 0.332
relative viability (EMC-BAC-2; first compound 4 µM): 0.315
relative viability (NCI-H358; first compound 0.04 µM): 0.168
relative viability (NCI-H358; first compound 0.1265 µM): 0.163
relative viability (NCI-H358; first compound 0.4 µM): 0.153
relative viability (NCI-H358; first compound 1.265 µM): 0.145
relative viability (NCI-H358; first compound 4 µM): 0.155
relative viability (EPLC-272H; first compound 0.04 µM): 0.315
relative viability (EPLC-272H; first compound 0.1265 µM): 0.252
relative viability (EPLC-272H; first compound 0.4 µM): 0.308
relative viability (EPLC-272H; first compound 1.265 µM): 0.26
relative viability (EPLC-272H; first compound 4 µM): 0.224
relative viability (NCI-H1915; first compound 0.04 µM): 0.542
relative viability (NCI-H1915; first compound 0.4 µM): 0.37
relative viability (NCI-H1915; first compound 1.265 µM): 0.295
relative viability (NCI-H1915; first compound 4 µM): 0.179
relative viability (NCI-H1755; first compound 0.04 µM): 0.434
relative viability (NCI-H1755; first compound 0.1265 µM): 0.426
relative viability (NCI-H1755; first compound 0.4 µM): 0.416
relative viability (NCI-H1755; first compound 1.265 µM): 0.388
relative viability (NCI-H1755; first compound 4 µM): 0.353
relative viability (NCI-H322M; first compound 0.04 µM): 0.477
relative viability (NCI-H322M; first compound 0.1265 µM): 0.491
relative viability (NCI-H322M; first compound 0.4 µM): 0.428
relative viability (NCI-H322M; first compound 1.265 µM): 0.385
relative viability (NCI-H322M; first compound 4 µM): 0.406
relative viability (HCC-15; first compound 0.04 µM): 0.648
relative viability (HCC-15; first compound 0.1265 µM): 0.585
relative viability (HCC-15; first compound 0.4 µM): 0.64
relative viability (HCC-15; first compound 1.265 µM): 0.561
relative viability (HCC-15; first compound 4 µM): 0.395
relative viability (ChaGo-K-1; first compound 0.04 µM): 0.942
relative viability (ChaGo-K-1; first compound 0.1265 µM): 0.909
relative viability (ChaGo-K-1; first compound 0.4 µM): 0.952
relative viability (ChaGo-K-1; first compound 1.265 µM): 0.674
relative viability (ChaGo-K-1; first compound 4 µM): 0.525
relative viability (NCI-H1666; first compound 0.04 µM): 0.646
relative viability (NCI-H1666; first compound 0.1265 µM): 0.576
relative viability (NCI-H1666; first compound 0.4 µM): 0.591
relative viability (NCI-H1666; first compound 1.265 µM): 0.647
relative viability (NCI-H1666; first compound 4 µM): 0.568
relative viability (NCI-H1975; first compound 0.04 µM): 0.607
relative viability (NCI-H1975; first compound 0.1265 µM): 0.38
relative viability (NCI-H1975; first compound 0.4 µM): 0.457
relative viability (NCI-H1975; first compound 1.265 µM): 0.287
relative viability (NCI-H1975; first compound 4 µM): 0.248
relative viability (NCI-H2023; first compound 0.04 µM): 0.338
relative viability (NCI-H2023; first compound 0.1265 µM): 0.281
relative viability (NCI-H2023; first compound 0.4 µM): 0.225
relative viability (NCI-H2023; first compound 1.265 µM): 0.135
relative viability (NCI-H2023; first compound 4 µM): 0.105
relative viability (NCI-H441; first compound 0.04 µM): 0.19
relative viability (NCI-H441; first compound 0.1265 µM): 0.206
relative viability (NCI-H441; first compound 0.4 µM): 0.176
relative viability (NCI-H441; first compound 1.265 µM): 0.137
relative viability (NCI-H441; first compound 4 µM): 0.132
relative viability (CAL-12T; first compound 0.04 µM): 0.413
relative viability (CAL-12T; first compound 0.1265 µM): 0.377
relative viability (CAL-12T; first compound 0.4 µM): 0.226
relative viability (CAL-12T; first compound 1.265 µM): 0.114
relative viability (CAL-12T; first compound 4 µM): 0.233
relative viability (LXF-289; first compound 0.04 µM): 0.562
relative viability (LXF-289; first compound 0.1265 µM): 0.591
relative viability (LXF-289; first compound 0.4 µM): 0.576
relative viability (LXF-289; first compound 1.265 µM): 0.426
relative viability (LXF-289; first compound 4 µM): 0.353
relative viability (UMC-11; first compound 0.04 µM): 0.292
relative viability (UMC-11; first compound 0.1265 µM): 0.226
relative viability (UMC-11; first compound 0.4 µM): 0.227
relative viability (UMC-11; first compound 1.265 µM): 0.257
relative viability (UMC-11; first compound 4 µM): 0.184
relative viability (HCC-78; first compound 0.04 µM): 0.489
relative viability (HCC-78; first compound 0.1265 µM): 0.523
relative viability (HCC-78; first compound 0.4 µM): 0.511
relative viability (HCC-78; first compound 1.265 µM): 0.469
relative viability (HCC-78; first compound 4 µM): 0.513

From the supplement of paper PMC10307832
